Laboratory results from patent US20240156846A1, “COMPOSITIONS AND METHODS FOR TREATING NEURODEGENERATIVE DISORDERS” (Arizona Board of Regents on Behalf of the University of …, priority 2020, published 2024).
“Also recorded” adds a separate entry of the source.

Experiments:
[1] = test system: myrosinase; conditions: cited from earlier work
[2] = test system: primary cultures of human neurons exposed to Aβ1-42 aggregates; test: Prevention of neuronal loss caused by Aβ1-42 aggregates (MTT assay); format: cell-based; conditions: compounds at 0 h, 24 h, 48 h; 1 μM Aβ1-42 aggregates at 24 h; MTT at 72 h
Method: Next, we determined whether these compounds, administered independently or formulated in combination, could protect primary cultures of human neurons against neurotoxic effects of Aβ1-42 aggregates, an in vitro condition relevant to AD pathology. We evaluated both prevention and rescue of neuronal death by NADH, NAD+ and PEITC (FIG. 7). In both experiments, the cultured human neurons were exposed to 1 nM, 10 nM, 100 nM, 1 μM, 10 μM, 20 μM, 40 μM, 50 μM, 75 μM, and 100 μM of each compound, either individually or in equimolar combinations. […] In the prevention experiment, cultures were exposed to fresh compounds every 24 h over the 48 h timeline of this experiment (i.e., 0 h, 24 h, and 48 h) to resemble a pharmacological regimen of once daily dosing. At 24 h, we added 1 μM of Aβ1-42 aggregates to the cell culture media and measured cell viability at 72 h using the MTT assay (Online Method, FIG. 7A). […] In the rescue experiments, primary cultures of human neurons were exposed to 1 μM of Aβ1-42 aggregates at 0 h for a period of 48 h to model existing cellular damage under conditions relevant to AD. After 24 h incubation with Aβ1-42, we added NADH, NAD+, PEITC, NADH/PEITC, and NAD+/PEITC directly to the culture media containing Aβ1-42 and incubated the cultured human neurons for an additional 24 h when cell viability was measured using our MTT assay.
To determine the optimal dosage of the two formulations for neuronal rescue and microglial phagocytosis stimulation, we treated the primary cultures of human neurons and primary cultures of human microglia in the prevention settings respectively with exhaustive combination of individual dosage of 10 μM, 20 μM, 40 μM, 50 μM, 75 μM, and 100 μM.

[3] = test system: primary cultures of human microglia exposed to Aβ1-42 aggregates; test: Aβ1-42 uptake (phagocytosis) by microglia, rescue setting; format: cell-based; conditions: 10 dosages tested
Excerpt: There is considerable interest in microglia-targeted therapies for AD, in part due to the phagocytotic functionality of these cells that can promote neuronal recovery and/or repair. Indeed, phagocytosis of insoluble Aβ by microglia can facilitate CNS clearance of Aβ aggregates and limit formation of amyloid plaques (Ronaldson & Davis, 2020). Indeed, Aβ can bind to receptors at the microglial cell surface, an event that can trigger release of proinflammatory cytokines such as TNF-α and IL-1β, factors that are known to cause neuronal damage (Wang et al. 2015). Additionally, Jiang and colleagues discovered that triggering receptor expressed in myeloid cells 1 (TREM1) can promote Aβ phagocytosis by microglia (Jiang et al. 2016). […] To determine if the natural compounds individually or in combination could promote phagocytosis in microglia, we designed prevention and rescue experiments to measure Aβ1-42 uptake in primary cultures of human microglia via intracellular fluorescence (Online method). […] After 24 h, we added 1 μM of Aβ1-42 aggregates to the treated media and measured cell viability at 72 h using the Aβ uptake assay (Online Method, FIG. 8A). […] Uptake of Aβ1-42 was then measured 24 h later (i.e., at the 48 h experimental time point, FIG. 8B).

[4] = test system: 3xTg AD mice; test: Treatment of 3xTg AD mice: brain Aβ, tau and proteomics; format: in vivo, mouse; conditions: for levels of neurotoxic Aβ42 / ratio of Aβ42 to Aβ40: 3xTg AD mice treated with individual compound; for ratio of p231-tau to total tau: 3xTg mice treated with individual compound
[5] = test system: humanized-Tau (hTau) mice; test: Treatment of humanized-Tau (hTau) mice: brain p231Tau; format: in vivo, mouse
[6] = human subjects, after the consumption of 100 g watercress; cited from earlier work
[7] = rat, in vivo, cited from earlier work
[8] = cited from earlier work

For O=S(=O)(O)ON=C(Cc1ccccc1)SC1OC(CO)C(O)C(O)C1F (stereo not drawn) [2-F-2-deoxybenzylglucosinolate], the inhibition of myrosinase [1] is given as “inhibits the enzyme by trapping one of the glutamic acid residues in the active site, Glu 409”.

For NC(=O)c1ccc[n+]([C@@H]2O[C@H](COP(=O)([O-])OP(=O)(O)OC[C@H]3O[C@@H](n4cnc5c(N)ncnc54)[C@H](O)[C@@H]3O)[C@@H](O)[C@H]2O)c1 [NAD+, oxidized nicotinamide adenine dinucleotide], the “prevention of neuronal loss as compared to the negative control condition” value [2] was “significantly prevented neuronal loss”, the “number of dosages that significantly rescued microglial phagocytosis of Aβ1-42” value [3] was “eight” and the “levels of neurotoxic Aβ42” value [4] was “significant reduction”. The “ratio of Aβ42 to Aβ40” value [4] was “significantly reduced; also recorded: significant reduction” and the “ratio of p231-tau to total tau” value [4] was “significantly reduced”.

In the case of NC(=O)C1=CN([C@@H]2O[C@H](COP(=O)(O)OP(=O)(O)OC[C@H]3O[C@@H](n4cnc5c(N)ncnc54)[C@H](O)[C@@H]3O)[C@@H](O)[C@H]2O)C=CC1 [NADH, reduced nicotinamide adenine dinucleotide], the “prevention of neuronal loss as compared to the negative control condition” value [2] is reported as “significantly prevented neuronal loss”, the “number of dosages that significantly rescued microglial phagocytosis of Aβ1-42” value [3] is reported as “three” and the “levels of neurotoxic Aβ42” value [4] is reported as “significant reduction”. For the same compound, the “ratio of Aβ42 to Aβ40” value [4] was “significantly reduced; also recorded: significant reduction” and the “ratio of p231-tau to total tau” value [4] was “significantly reduced”.

For S=C=NCCc1ccccc1 [PEITC, phenethyl isothiocyanate], the “prevention of neuronal loss as compared to the negative control condition” value [2] was “significantly prevented neuronal loss”, the “levels of neurotoxic Aβ42” value [4] was “significant reduction” and the “ratio of Aβ42 to Aβ40” value [4] was “significantly reduced; also recorded: significant reduction”. For the same compound, the “ratio of p231-tau to total tau” value [4] was “significantly reduced”, the “level of hyperphosphorylated Tau (p231Tau)” value [5] was “significant reduction” and the “ratio of p231Tau to Tau” value [5] was “significant reduction”. For the same compound, the peak plasma concentration [6] was “about 928.5±250 nM”, the bioavailability ([7]; po) was 90-114% and the clearance ([7]; po) was “low”. For the same compound, the protein binding ([7]; po) was “high” and the “bioavailability with repeated dosing” value [7] was “Increased”.

For O=S(=O)(O)O [Sulfate], the inhibition of myrosinase [1] is listed as “competitive inhibitor”.

For CN1C(=N)N[C@](C)(c2cc(NC(=O)c3ccc(F)cn3)ccc2F)CS1(=O)=O [Verubecestat], the “CSF Aβ levels” value ([8]; patients with AD / early-stage AD) is listed as “decrease CSF Aβ levels”.

For C[C@@]1(c2cc(NC(=O)c3ccc(C#N)cn3)ccc2F)C=CSC(N)=N1 [atabecestat], the “cognitive assessment scores in treated patients” value ([8]; phase two clinical trials and long-term safety and tolerability study) is listed as “trend of worsening cognitive assessment scores”.

For CC(C)[C@H](O)C(=O)N[C@@H](C)C(=O)N[C@@H]1C(=O)N(C)CCc2ccccc21 [semagacestat], the “functional or cognitive ability in treated patients” value ([8]; phase three trial) is listed as “lack of efficacy and a worsening of function and cognition”.

In the case of OC[C@H]1O[C@@](CO)(O[C@H]2O[C@H](CO)[C@@H](O)[C@H](O)[C@H]2O)[C@@H](O)[C@@H]1O [sucrose, reference compound], the “prevention of neuronal loss as compared to the negative control condition” value [2] is reported as “did not prevent any neuronal death”.
